Measurements as given in patent US10766878B2, “Sulfonylcycloalkyl carboxamide compounds” (Genentech, Inc., priority 2017, dated 2020).

Target: human TRPA1 (Homo sapiens (Human), UniProt O75762)
Assay: hTRPA1 CHO Ca2+ AUC EVO (IC50); FLIPR Tetra block of cinnamaldehyde induced calcium influx
Type: cell-based
Conditions: CHO cells expressing TRPA1, 75 uM cinnamaldehyde agonist
Protocol: IC50 values ([…]) of compounds on the human and rat TRPA1 channels were determined using a FLIPR Tetra instrument. CHO cells expressing TRPA1 were plated into 384-well plates, incubated overnight at 37 C, and loaded with BD calcium indicator dye for 1 hr at 37° C. followed by 15 minutes. at room temperature. The assay buffer was Hank's Balanced Salt Solution (HBSS) containing 20 mM HEPES (pH readjusted to 7.4) along with 0.02% BSA.
Following dye load and plate cool down, compounds were added to the cells using FLIPR Tetra. Plates were then incubated with compounds for 20 minutes at room temperature prior to adding agonist. Following this incubation, ˜EC80 concentration of cinnamaldehyde (75 uM for human TRPA1 and 45 uM for rat TRPA1) was added to active the channels and block of cinnamaldehyde induced calcium influx was measured.
IC50 values were fit with a standard Hill function, keeping the Hill coefficient (n) fixed to 1.5. Fixing the Hill coefficient will generally reduce variability of the IC50 determination. The IC50 values were individually examined to make sure the MIN and MAX points were set correctly prior to validation of the results.

human TRPA1, sequence (O75762 whole entry): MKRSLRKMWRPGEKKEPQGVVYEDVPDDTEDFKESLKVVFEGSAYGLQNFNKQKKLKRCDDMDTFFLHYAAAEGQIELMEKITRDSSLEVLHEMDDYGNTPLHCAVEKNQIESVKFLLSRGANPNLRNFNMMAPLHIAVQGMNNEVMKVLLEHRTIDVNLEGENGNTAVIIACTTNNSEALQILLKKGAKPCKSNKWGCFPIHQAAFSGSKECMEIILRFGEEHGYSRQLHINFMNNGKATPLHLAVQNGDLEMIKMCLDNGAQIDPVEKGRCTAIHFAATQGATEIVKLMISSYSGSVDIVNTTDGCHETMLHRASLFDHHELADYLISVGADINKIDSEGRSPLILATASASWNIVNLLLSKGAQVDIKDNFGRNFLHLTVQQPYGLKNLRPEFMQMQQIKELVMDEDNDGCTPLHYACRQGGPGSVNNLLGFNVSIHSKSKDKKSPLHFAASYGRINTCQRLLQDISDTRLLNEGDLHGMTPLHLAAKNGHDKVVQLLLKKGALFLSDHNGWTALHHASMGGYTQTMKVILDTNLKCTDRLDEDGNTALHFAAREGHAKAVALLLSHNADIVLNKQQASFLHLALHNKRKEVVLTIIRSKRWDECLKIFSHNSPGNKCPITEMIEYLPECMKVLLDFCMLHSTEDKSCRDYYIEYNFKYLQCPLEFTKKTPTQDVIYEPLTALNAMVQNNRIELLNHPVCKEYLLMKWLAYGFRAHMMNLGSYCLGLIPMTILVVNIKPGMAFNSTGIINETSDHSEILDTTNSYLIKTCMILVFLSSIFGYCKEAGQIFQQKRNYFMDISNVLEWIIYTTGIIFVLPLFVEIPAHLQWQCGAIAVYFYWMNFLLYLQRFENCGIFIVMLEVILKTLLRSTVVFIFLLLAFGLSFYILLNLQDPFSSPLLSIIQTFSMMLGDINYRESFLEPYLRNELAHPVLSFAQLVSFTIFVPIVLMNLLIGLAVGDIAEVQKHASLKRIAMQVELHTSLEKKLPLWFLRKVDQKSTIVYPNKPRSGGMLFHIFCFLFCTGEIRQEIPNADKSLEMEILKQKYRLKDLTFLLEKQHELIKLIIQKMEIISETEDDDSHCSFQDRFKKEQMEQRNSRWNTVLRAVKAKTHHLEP

| IC50 (Table 3) | IC50 (Table 1) | SMILES |
| --- | --- | --- |
| 0.0622 µM |  | COc1nn(-c2ccc(C(F)(F)F)nc2)cc1CNC(=O)C1(C)CCCC1S(=O)(=O)c1ccc(F)cc1 (single isomer, unassigned; enantiomer 3) [Example 36, 2-(4-fluorophenylsulfonyl)-N-((3-methoxy-1-(6-(trifluoromethyl)pyridin-3-yl)-1H-pyrazol-4-yl)methyl)-1-methylcyclopentanecarboxamide (Enantiomer 3)] |
| 0.0471 µM | 0.0471 µM | CC1(C(=O)NCc2cn(-c3ccc(C(F)(F)F)cc3)nc2Cl)CCCC1S(=O)(=O)c1ccc(F)cc1 (single isomer, unassigned; enantiomer 3) [Example 38, N-((3-chloro-1-(4-(trifluoromethyl)phenyl)-1H-pyrazol-4-yl)methyl)-2-(4-fluorophenylsulfonyl)-1-methylcyclopentanecarboxamide (Enantiomer 3)] |
| 0.0346 µM |  | O=C(NCc1cn(-c2ccc(C(F)(F)F)cc2)nc1C(F)F)[C@@H]1CC[C@@H]1S(=O)(=O)c1ccc(F)cc1 [Example 1, (1S,2S)-N-((3-(difluoromethyl)-1-(4-(trifluoromethyl)phenyl)-1H-pyrazol-4-yl)methyl)-2-(4-fluorophenylsulfonyl) cyclobutanecarboxamide] |
| 0.5 µM |  | O=C(Cc1cn(-c2cnc(C(F)(F)F)nc2)nc1C(F)(F)F)N[C@@H]1CC[C@@H]1[S+]([O-])c1ccc(F)cc1 (stereo partly drawn) [Example 2, N-((1R,2S)-2-(4-fluorophenylsulfinyl)cyclobutyl)-2-(3-(trifluoromethyl)-1-(2-(trifluoromethyl)pyrimidin-5-yl)-1H-pyrazol-4-yl)acetamide] |
| 0.00788 µM | 0.00788 µM | O=C(Cc1cn(-c2cnc(C(F)(F)F)nc2)nc1C(F)(F)F)N[C@@H]1CC[C@@H]1S(=O)(=O)c1ccc(F)cc1 [Example 3, N-((1R,2S)-2-(4-fluorophenylsulfonyl)cyclobutyl)-2-(3-(trifluoromethyl)-1-(2-(trifluoromethyl)pyrimidin-5-yl)-1H-pyrazol-4-yl)acetamide] |
| 0.0218 µM |  | O=C(NCc1cn(-c2ccc(C(F)(F)F)nc2)nc1C(F)(F)F)[C@@H]1CCC[C@@H]1S(=O)(=O)c1ccc(F)cc1 [Example 4, (1S,2S)-2-[(4-fluorobenzene)sulfonyl]-N-[[3-(trifluoromethyl)-1-[6-(trifluoromethyl)pyridin-3-yl]-1H-pyrazol-4-yl]methyl]cyclopentane-1-carboxamide] |
| 0.0469 µM | 0.0469 µM | O=C(Cc1cn(-c2cnc(C(F)(F)F)nc2)nc1C1CC1)N[C@@H]1CC[C@@H]1S(=O)(=O)c1ccc(F)cc1 [Example 6, 2-(3-cyclopropyl-1-(2-(trifluoromethyl)pyrimidin-5-yl)-1H-pyrazol-4-yl)-N-((1R,2S)-2-(4-fluorophenylsulfonyl)cyclobutyl)acetamide] |
| 0.0403 µM | 0.0403 µM | O=C(Cc1cn(-c2cnc(C(F)(F)F)nc2)nc1Cl)N[C@@H]1CC[C@@H]1S(=O)(=O)c1ccc(F)cc1 [Example 7, 2-(3-chloro-1-(2-(trifluoromethyl)pyrimidin-5-yl)-1H-pyrazol-4-yl)-N-((1R,2S)-2-(4-fluorophenylsulfonyl)cyclobutyl) acetamide] |
| 0.0352 µM | 0.0352 µM | O=C(Cc1cn(-c2cnc(C(F)(F)F)nc2)nc1C(F)F)N[C@@H]1CC[C@@H]1S(=O)(=O)c1ccc(F)cc1 [Example 9, 2-(3-(difluoromethyl)-1-(2-(trifluoromethyl)pyrimidin-5-yl)-1H-pyrazol-4-yl)-N-((1R,2S)-2-(4-fluorophenylsulfonyl)cyclobutyl)acetamide] |
| 0.0436 µM |  | COc1nn(-c2ccc(C(F)F)cc2)cc1CC(=O)N[C@@H]1CC[C@@H]1S(=O)(=O)c1ccc(F)cc1 [Example 10, 2-(1-(4-(difluoromethyl)phenyl)-3-methoxy-1H-pyrazol-4-yl)-N-((1R,2S)-2-(4-fluorophenylsulfonyl)cyclobutyl) acetamide] |
| 0.0185 µM | 0.0185 µM | COc1nn(-c2ccc(C(F)(F)F)nc2)cc1CC(=O)N[C@@H]1CC[C@@H]1S(=O)(=O)c1ccc(F)cc1 [Example 13, N-((1R,2S)-2-((4-fluorophenyl)sulfonyl)cyclobutyl)-2-(3-methoxy-1-(6-(trifluoromethyl)pyridin-3-yl)-1H-pyrazol-4-yl)acetamide] |
| 0.0052 µM | 0.0052 µM | COc1nn(-c2ccc(C(F)(F)F)cc2)cc1CC(=O)N[C@@H]1CC[C@@H]1S(=O)(=O)c1ccc(F)cc1 [Example 14, N-((1R,2S)-2-((4-fluorophenyl)sulfonyl)cyclobutyl)-2-(3-methoxy-1-(4-(trifluoromethyl)phenyl)-1H-pyrazol-4-yl)acetamide] |
| 0.14 µM |  | O=C(NCc1cc(-c2ccc(C(F)(F)F)nc2)ncc1Cl)[C@@H]1CC[C@@H]1S(=O)(=O)c1ccc(F)cc1 [Example 15] |
| 0.162 µM |  | O=C(NCc1cn(-c2cnc(C(F)(F)F)nc2)nc1C(F)F)[C@@H]1CC[C@@H]1S(=O)(=O)c1ccc(F)cc1 [Example 16, (1S,2S)-N-((3-(difluoromethyl)-1-(2-(trifluoromethyl)pyrimidin-5-yl)-1H-pyrazol-4-yl)methyl)-2-(4-fluorophenylsulfonyl) cyclobutanecarboxamide] |
| 0.0242 µM |  | O=C(NCc1cn(-c2ccc(C(F)(F)F)cc2)nc1C(F)F)[C@@H]1CC[C@@H]1S(=O)(=O)c1ccc(F)cc1 [Example 17, (1S,2S)-N-((3-(difluoromethyl)-1-(4-(trifluoromethyl)phenyl)-1H-pyrazol-4-yl)methyl)-2-(4-fluorophenylsulfonyl) cyclobutanecarboxamide] |
| 0.159 µM |  | O=C(NCc1ccc(F)c(-c2cnc(C(F)(F)F)nc2)c1)[C@@H]1CC[C@@H]1S(=O)(=O)c1ccc(F)cc1 [Example 19, (1S,2S)-2-(4-fluorophenyl)sulfonyl-N-[[4-fluoro-3-[2-(trifluoromethyl)pyrimidin-5-yl]phenyl]methyl] cyclobutanecarboxamide] |
| 0.0984 µM |  | O=C(NCc1cn(-c2ccc(C(F)(F)F)nc2)nc1C(F)F)[C@@H]1CC[C@@H]1S(=O)(=O)c1ccc(F)cc1 [Example 20, (1S,2S)-N-((3-(difluoromethyl)-1-(6-(trifluoromethyl)pyridin-3-yl)-1H-pyrazol-4-yl)methyl)-2-((4-fluorophenyl)sulfonyl) cyclobutanecarboxamide] |
| 0.386 µM |  | O=C(NCc1cc(-c2cccc(C(F)(F)F)c2)ncn1)[C@@H]1CC[C@@H]1S(=O)(=O)c1ccc(F)cc1 [Example 21, (1S,2S)-2-((4-fluorophenyl)sulfonyl)-N-((6-(3-(trifluoromethyl)phenyl)pyrimidin-4-yl)methyl)cyclobutanecarboxamide] |
| 0.0415 µM | 0.0415 µM | O=C(NCc1cn(-c2ccc(C(F)(F)F)nc2)nc1C(F)(F)F)[C@@H]1CC[C@@H]1S(=O)(=O)c1ccc(F)cc1 [Example 24, (1S,2S)-2-(4-fluorophenylsulfonyl)-N-((3-(trifluoromethyl)-1-(6-(trifluoromethyl)pyridin-3-yl)-1H-pyrazol-4-yl)methyl)cyclobutanecarboxamide] |
| 0.113 µM |  | O=C(NCc1cc(-c2ccc(C(F)(F)F)cc2)ncn1)[C@@H]1CC[C@@H]1S(=O)(=O)c1ccc(F)cc1 [Example 27, (1S,2S)-2-(4-fluorophenylsulfonyl)-N-((6-(4-(trifluoromethyl)phenyl)pyrimidin-4-yl)methyl)cyclobutanecarboxamide] |
| 0.0194 µM | 0.0194 µM | O=C(NCc1cn(-c2ccc(C(F)(F)F)cc2)nc1Cl)[C@@H]1CC[C@@H]1S(=O)(=O)c1ccc(F)cc1 [Example 28, (1S,2S)-N-((3-chloro-1-(4-(trifluoromethyl)phenyl)-1H-pyrazol-4-yl)methyl)-2-(4-fluorophenylsulfonyl) cyclobutanecarboxamide] |
| 0.159 µM |  | COc1nn(-c2ccc(C(F)(F)F)nc2)cc1CNC(=O)[C@@H]1CCC[C@@H]1S(=O)(=O)c1ccc(F)cc1 [Example 40, (1S,2S)-2-(4-fluorophenylsulfonyl)-N-((3-methoxy-1-(6-(trifluoromethyl)pyridin-3-yl)-1H-pyrazol-4-yl)methyl) cyclopentanecarboxamide] |
| 0.0404 µM |  | O=C(NCc1cn(-c2ccc(C(F)(F)F)nc2)nc1C(F)(F)F)[C@@H]1CCC[C@@H]1S(=O)(=O)c1ccc(F)cc1 [Example 41, (1S,2S)-2-[(4-fluorobenzene)sulfonyl]-N-[[3-(trifluoromethyl)-1-[6-(trifluoromethyl)pyridin-3-yl]-1H-pyrazol-4-yl]methyl]cyclopentane-1-carboxamide] |
| 0.0389 µM | 0.0389 µM | O=C(NCc1cn(-c2ccc(C(F)(F)F)cc2)nc1Cl)[C@@H]1CCC[C@@H]1S(=O)(=O)c1ccc(F)cc1 [Example 43, (1S,2S)-N-((3-chloro-1-(4-(trifluoromethyl)phenyl)-1H-pyrazol-4-yl)methyl)-2-(4-fluorophenylsulfonyl) cyclopentanecarboxamide] |
